SMILES strings stand for the structures.

The values that follow come from patent US7855208B2, “3, 9-diazabicyclo(3.3.1)non-3-yl-aryl methanone derivatives as nicotinic acetylcholine receptor agonists” (NeuroSearch A/S, priority 2006, dated 2010).

For series [1], the target named is T1, α7-subtype of nicotinic receptors (Rattus norvegicus, UniProt Q05941).
T1 construct: Cerebral cortices from male Wistar rats (150-250 g) are homogenised; from tissue; host or cells: rat cerebral cortex membrane homogenate
Nature of the series: In vitro inhibition of 3H-α-bungarotoxine binding in rat brain. The conditions noted are these: rat cerebral cortex homogenate, 3H-α-bungarotoxine 2 nM.

T1 sequence (Q05941 23-502): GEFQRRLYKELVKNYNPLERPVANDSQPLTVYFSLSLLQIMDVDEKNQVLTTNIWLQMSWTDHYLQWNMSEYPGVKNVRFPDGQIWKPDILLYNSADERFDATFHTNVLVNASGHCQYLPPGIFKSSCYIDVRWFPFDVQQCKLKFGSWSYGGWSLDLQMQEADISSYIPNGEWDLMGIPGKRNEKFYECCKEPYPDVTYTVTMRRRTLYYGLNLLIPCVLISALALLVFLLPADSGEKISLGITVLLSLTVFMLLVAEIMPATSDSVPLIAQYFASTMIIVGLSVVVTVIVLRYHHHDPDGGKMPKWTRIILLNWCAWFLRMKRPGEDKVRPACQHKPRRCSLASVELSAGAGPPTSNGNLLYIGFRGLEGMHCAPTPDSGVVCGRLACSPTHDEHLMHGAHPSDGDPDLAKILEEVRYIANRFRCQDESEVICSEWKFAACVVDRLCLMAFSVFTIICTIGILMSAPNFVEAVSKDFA

As for `CN1C2CCCC1CN(C(=O)c1ccc(-c3ccc([N+](=O)[O-])cc3)o1)C2.Cl`, the melting point (in general, the temperature, or range, at which the solid turns liquid) was 263 °C.
On the same count and under the same terms, with `CN1C2CCCC1CN(C(=O)c1ccc(-c3ccc(NC(=O)c4ccccc4)cc3)o1)C2.O=C(O)/C=C/C(=O)O` the figure was 246 to 252 °C; with `CCNC(=O)Nc1ccc(-c2ccc(C(=O)N3CC4CCCC(C3)N4C)o2)cc1.O=C(O)/C=C/C(=O)O`, 154 to 161 °C; with `CC(=O)Nc1ccc(-c2ccc(C(=O)N3CC4CCCC(C3)N4C)o2)cc1.O=C(O)/C=C/C(=O)O`, 197 to 229 °C.
In the case of `CN1C2CCCC1CN(C(=O)c1ccc(-c3ccc(N)cc3)o1)C2` [Compound B1], the melting point was 147 to 149 °C. Besides, in series [1], the IC50 (commonly the midpoint of a concentration-inhibition curve) is 420 nM.
